Reference: ChEMBL document CHEMBL1201862, “PubChem BioAssay data set” (2004)
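Cells were grown in 96-well plates and exposed to each compound for 48 hours at five concentrations; endpoints were interpolated linearly between bracketing concentrations, or set to the highest concentration if not reached. The concentration for 50% growth inhibition is given as GI50.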 Active and inactive are the calls of the source. Rule as the data show it: active = GI50 up to about 1.1 µM and inactive = higher.

What was measured:
Assay in all cases: NCI tumour cell line growth inhibition, 48 h
[1] = tested on: A549
[2] = tested on: COLO 205
[3] = tested on: DLD-1
[4] = tested on: EKVX
[5] = tested on: HCT-15
[6] = tested on: HT-29
[7] = tested on: K562
[8] = tested on: KM-20L2
[9] = tested on: Malme-3M
[10] = tested on: NCI-H460
[11] = tested on: NCI-H522
[12] = tested on: RPMI-8226
[13] = tested on: SK-MEL-2
[14] = tested on: SK-OV-3
[15] = tested on: SN12C
[16] = tested on: SNB-78
[17] = tested on: UACC-257

Row | Compound | GI50 [1] | GI50 [2] | GI50 [3] | GI50 [4] | GI50 [5] [µM] | GI50 [6] | GI50 [7] | GI50 [8] | GI50 [9] | GI50 [10] | GI50 [11] | GI50 [12] | GI50 [13] | GI50 [14] | GI50 [15] | GI50 [16] | GI50 [17]
1 | CC1C(c2ccccc2)=CCON1c1ccccc1 (stereo not given) | > 100 µM (inactive) | > 100 µM (inactive) | > 100 µM (inactive) | > 100 µM (inactive) | > 100 | > 100 µM (inactive) | > 100 µM (inactive) | > 100 µM (inactive) | > 100 µM (inactive) | > 100 µM (inactive) | > 100 µM (inactive) | > 100 µM (inactive) | > 100 µM (inactive) | > 100 µM (inactive) | > 100 µM (inactive) | > 100 µM (inactive) | > 100 µM (inactive)
2 | CCCCN(CC)CC(C(C)=O)c1c(O)c2ccccc2oc1=O (stereo not given) | > 100 µM (inactive) | > 100 µM (inactive) | > 100 µM (inactive) | > 100 µM (inactive) | > 100 | > 100 µM (inactive) | > 100 µM (inactive) | > 100 µM (inactive) | > 100 µM (inactive) | > 100 µM (inactive) | > 100 µM (inactive) | > 100 µM (inactive) | > 100 µM (inactive) | > 100 µM (inactive) | > 100 µM (inactive) | > 100 µM (inactive) | > 100 µM (inactive)
3 | C[C@]12CCC3[C@@H](CC[C@@H]4c5nonc5CC[C@]34C)C1CC[C@@H]2O (stereo not given in full) | 25.5 µM (inactive) | 30.4 µM (inactive) | 26.3 µM (inactive) | 23.8 µM (inactive) | 28.4 | 32.7 µM (inactive) | 34.3 µM (inactive) | 43.7 µM (inactive) | 24.5 µM (inactive) | 25.9 µM (inactive) | 17.8 µM (inactive) | 14.5 µM (inactive) | 22.6 µM (inactive) | 30.5 µM (inactive) | 22.1 µM (inactive) | 38.6 µM (inactive) | 19.8 µM (inactive)
4 | Cc1ccc(NCC(=O)N2CC(=O)Nc3ccccc32)c(C)c1 | > 100 µM (inactive) | > 100 µM (inactive) | > 100 µM (inactive) | > 100 µM (inactive) | > 100 | > 100 µM (inactive) | > 100 µM (inactive) | > 100 µM (inactive) | > 100 µM (inactive) | > 100 µM (inactive) | > 100 µM (inactive) | > 100 µM (inactive) | > 100 µM (inactive) | > 100 µM (inactive) | > 100 µM (inactive) | > 100 µM (inactive) | > 100 µM (inactive)
5 | O=C(O)C(CS)Nc1c2ccccc2[n+]([O-])c2ccccc12 (stereo not given) | > 100 µM (inactive) | > 100 µM (inactive) | 95.9 µM (inactive) | 80.4 µM (inactive) | > 100 | > 100 µM (inactive) | 78.9 µM (inactive) | > 100 µM (inactive) | > 100 µM (inactive) | > 100 µM (inactive) | 56.9 µM (inactive) | 29.1 µM (inactive) | > 100 µM (inactive) | > 100 µM (inactive) | > 100 µM (inactive) | > 100 µM (inactive) | > 100 µM (inactive)
